Test results from US20230346912A1 (priority 2022, published 2023).

What follows are sequences tested on spleen lymphocytes of B2 haplotype chickens infected with H9N2 AIV.
Format: cell-based, chicken

Row | Sequence | immunogenicity of individual peptide (IFN-γ ELISpot)
1 | DVSFQGRGV [Polypeptide P11] | considered immunogenic
2 | WIIRNWETV [Polypeptide P257] | considered immunogenic
3 | MSRDWLMLI [Polypeptide P373] | considered immunogenic
4 | AVKGIGTMV [Polypeptide P10] | considered immunogenic
